Measurements as given in ChEMBL document CHEMBL3885861, “Open TG-GATES”.

Species on record: Rattus norvegicus
Experiment: Open TG-GATES - Regimen: Single
Type: toxicity, organism-based, Sprague-Dawley
Design: regimen Single, gender Male, age 6 weeks
Settings: in vivo, po, 50 mg/kg, route gavage, dose level Middle; for APTT / Bas / Eos / Fbg / Hb / Ht / Lym / MCH / MCHC / MCV / Mono / Neu / PT / Plat / RBC / Ret / WBC: tissue Blood; for KIDNEY_L / KIDNEY_R / KIDNEY_TOTAL: tissue Kidney; for LIVER: tissue Liver; for A/G / ALP / ALT / AST / BUN / CRE / Ca / Cl / DBIL / GLC / IP / K / LDH / Na / PL / RALB / TBIL / TC / TG / TP / gamma-GTP: tissue Plasma

Compound `S=C=Nc1cccc2ccccc12` [1-NAPHTHYLISOTHIOCYANATE] has a TERMINAL_BW (3 h) of 223.2 g, an APTT (3 h) of 18.3 s and a Bas (3 h) of 0.2%. The Eos (3 h) was 1%, the Fbg (3 h) was 237 mg/dL and the Hb (3 h) was 13.7 g/dL. For the same compound, the Ht (3 h) was 38.1%, the Lym (3 h) was 76.6% and the MCH (3 h) was 21.4 pg. For the same compound, the MCHC (3 h) was 35.9%, the MCV (3 h) was 59.7 fL and the Mono (3 h) was 2.6%. For the same compound, the Neu (3 h) was 18.8%, the PT (3 h) was 11.6 s and the Plat (3 h) was 118.2 x10_4/uL. It also gave an RBC (3 h) of 639.2 x10_4/ul, a Ret (3 h) of 8% and a WBC (3 h) of 87.7 x10_2/uL. For the same compound, the KIDNEY_L (3 h) was 0.9 g, the KIDNEY_R (3 h) was 1 g and the KIDNEY_TOTAL (3 h) was 1.9 g. The LIVER (3 h) was 9.8 g, the A/G (3 h) was 1.7 and the ALP (3 h) was 1022.2 IU/L. For the same compound, the ALT (3 h) was 45 IU/L, the AST (3 h) was 80.2 IU/L and the BUN (3 h) was 9.6 mg/dL. It also gave a CRE (3 h) of 0.4 mg/dL, a Ca (3 h) of 10.8 mg/dL and a Cl (3 h) of 102.8 meq/L. The DBIL (3 h) was 0.1 mg/dL, the GLC (3 h) was 240.6 mg/dL and the IP (3 h) was 10.1 mg/dL. It also gave a K (3 h) of 3.9 meq/L, an LDH (3 h) of 179.8 IU/L and a Na (3 h) of 141.4 meq/L. For the same compound, the PL (3 h) was 154.2 mg/dL, the RALB (3 h) was 3.6 g/dL and the TBIL (3 h) was 0.1 mg/dL. For the same compound, the TC (3 h) was 85.2 mg/dL, the TG (3 h) was 77.4 mg/dL and the TP (3 h) was 5.7 g/dL. For the same compound, the gamma-GTP (3 h) was 0.8 IU/L, the TERMINAL_BW (6 h) was 220.8 g and the APTT (6 h) was 19.2 s. The Bas (6 h) was 0%, the Eos (6 h) was 0.4% and the Fbg (6 h) was 239.8 mg/dL. For the same compound, the Hb (6 h) was 13.9 g/dL, the Ht (6 h) was 38.9% and the Lym (6 h) was 79.2%. For the same compound, the MCH (6 h) was 21.3 pg, the MCHC (6 h) was 35.6% and the MCV (6 h) was 59.8 fL. It also gave a Mono (6 h) of 2.2%, a Neu (6 h) of 17% and a PT (6 h) of 12 s. For the same compound, the Plat (6 h) was 126.8 x10_4/uL, the RBC (6 h) was 651.4 x10_4/ul and the Ret (6 h) was 7%. The WBC (6 h) was 80.1 x10_2/uL, the KIDNEY_L (6 h) was 1 g and the KIDNEY_R (6 h) was 1 g. The KIDNEY_TOTAL (6 h) was 1.9 g, the LIVER (6 h) was 9.3 g and the A/G (6 h) was 1.5. It also gave an ALP (6 h) of 936.2 IU/L, an ALT (6 h) of 36.6 IU/L and an AST (6 h) of 72.8 IU/L. The BUN (6 h) was 8.6 mg/dL, the CRE (6 h) was 0.4 mg/dL and the Ca (6 h) was 10.6 mg/dL. It also gave a Cl (6 h) of 101.8 meq/L, a DBIL (6 h) of 0.2 mg/dL and a GLC (6 h) of 321.6 mg/dL. It also gave an IP (6 h) of 10.2 mg/dL, a K (6 h) of 4.2 meq/L and an LDH (6 h) of 208 IU/L. The Na (6 h) was 140.2 meq/L, the PL (6 h) was 153.8 mg/dL and the RALB (6 h) was 3.5 g/dL. It also gave a TBIL (6 h) of 0.2 mg/dL, a TC (6 h) of 84.6 mg/dL and a TG (6 h) of 69.8 mg/dL. The TP (6 h) was 5.8 g/dL, the gamma-GTP (6 h) was 1 IU/L and the TERMINAL_BW (9 h) was 214.5 g. For the same compound, the APTT (9 h) was 17.9 s, the Bas (9 h) was 0% and the Eos (9 h) was 0.6%. For the same compound, the Fbg (9 h) was 254 mg/dL, the Hb (9 h) was 13.7 g/dL and the Ht (9 h) was 38.2%. The Lym (9 h) was 76.8%, the MCH (9 h) was 22.3 pg and the MCHC (9 h) was 35.9%. For the same compound, the MCV (9 h) was 62 fL, the Mono (9 h) was 2.2% and the Neu (9 h) was 19.2%. The PT (9 h) was 12 s, the Plat (9 h) was 133.4 x10_4/uL and the RBC (9 h) was 615.6 x10_4/ul. For the same compound, the Ret (9 h) was 7.2%, the WBC (9 h) was 80 x10_2/uL and the KIDNEY_L (9 h) was 0.9 g. The KIDNEY_R (9 h) was 0.9 g, the KIDNEY_TOTAL (9 h) was 1.8 g and the LIVER (9 h) was 8.8 g. It also gave an A/G (9 h) of 1.6, an ALP (9 h) of 826 IU/L and an ALT (9 h) of 34.2 IU/L. For the same compound, the AST (9 h) was 60 IU/L, the BUN (9 h) was 10 mg/dL and the CRE (9 h) was 0.4 mg/dL. It also gave a Ca (9 h) of 10.7 mg/dL, a Cl (9 h) of 102 meq/L and a DBIL (9 h) of 0.2 mg/dL. The GLC (9 h) was 321.8 mg/dL, the IP (9 h) was 10 mg/dL and the K (9 h) was 4.3 meq/L. It also gave an LDH (9 h) of 150.4 IU/L, a Na (9 h) of 141.2 meq/L and a PL (9 h) of 147.8 mg/dL. The RALB (9 h) was 3.5 g/dL, the TBIL (9 h) was 0.2 mg/dL and the TC (9 h) was 79.8 mg/dL. It also gave a TG (9 h) of 72 mg/dL, a TP (9 h) of 5.8 g/dL and a gamma-GTP (9 h) of 1.2 IU/L. For the same compound, the TERMINAL_BW (24 h) was 214.8 g, the APTT (24 h) was 19.7 s and the Bas (24 h) was 0.6%. For the same compound, the Eos (24 h) was 0.4%, the Fbg (24 h) was 357 mg/dL and the Hb (24 h) was 14.3 g/dL. It also gave a Ht (24 h) of 37.9%, a Lym (24 h) of 48% and an MCH (24 h) of 22.4 pg. For the same compound, the MCHC (24 h) was 37.7%, the MCV (24 h) was 59.2 fL and the Mono (24 h) was 4.6%. It also gave a Neu (24 h) of 44.6%, a PT (24 h) of 12.2 s and a Plat (24 h) of 131.9 x10_4/uL. The RBC (24 h) was 639.6 x10_4/ul, the Ret (24 h) was 6% and the WBC (24 h) was 118.9 x10_2/uL. It also gave a KIDNEY_L (24 h) of 1 g, a KIDNEY_R (24 h) of 1 g and a KIDNEY_TOTAL (24 h) of 2 g. It also gave an LIVER (24 h) of 9.2 g, an A/G (24 h) of 1.3 and an ALP (24 h) of 1257.2 IU/L. The ALT (24 h) was 153.8 IU/L, the AST (24 h) was 366.6 IU/L and the BUN (24 h) was 10.4 mg/dL. The CRE (24 h) was 0.4 mg/dL, the Ca (24 h) was 10.4 mg/dL and the Cl (24 h) was 98 meq/L. It also gave a DBIL (24 h) of 0.9 mg/dL, a GLC (24 h) of 177.6 mg/dL and an IP (24 h) of 8.6 mg/dL. For the same compound, the K (24 h) was 3.5 meq/L, the LDH (24 h) was 617.6 IU/L and the Na (24 h) was 141.4 meq/L. The PL (24 h) was 218.2 mg/dL, the RALB (24 h) was 3.2 g/dL and the TBIL (24 h) was 1.1 mg/dL. The TC (24 h) was 107 mg/dL, the TG (24 h) was 64.8 mg/dL and the TP (24 h) was 5.7 g/dL. It also gave a gamma-GTP (24 h) of 6.2 IU/L.
